Source: US20080241194A1, “COMPOSITIONS AND METHODS FOR PROTECTING ORGANS, TISSUE AND CELLS FROM IMMUNE SYSTEM-MEDIATED DAMAGE” (THE BOARD OF TRUSTEES OF THE LELAND STANFORD JUNIOR …, priority 1998, published 2008)

Key:
huHsp47 RNA = assay: Northern analysis of huHsp47 RNA expression in BFA treated EC; format: cell-based, human; conditions: EC under BFA treatment, 0, 2 and 6 hour time points
Description: Northern analysis of huHsp47 RNA expression was carried out via a^32P-ATP nick translation labeling of the agarose gel purified full-length huHSP47 cDNA as probe and human beta action (a kind gift of Dr. S.N. Cohen) cDNA as internal control probe. Total RNA was harvested at 0 hour, 2 hour and 6 hour time points from EC undergoing BFA treatment. RNA for each time point was purified, denatured, subjected to formamide flatbed agarose gel electrophoresis, transferred to nitrocellulose, prehybridized, hybridized with the ^32P-labelled probes, washed under stringent conditions and autoradiographed without intensifier screens at −80° C. using techniques well known to those skilled in the art (see Sambrook et al. Molecular Cloning, A Laboratory Manual, second edition, Cold Spring Harbor Laboratory Press, 1989).

OCI-Ly8 tumor cell = assay: ^51Cr release CIK cytotoxicity assay, tumor targets; format: cell-based, human; conditions: OCI-Ly8 incubated with BFA 0-10 μM for 6 hours, E:T 20:1
Description: (§1) Target cells were metabolically labelled with ^51Cr (Dupont—New England Nuclear, Boston, Mass.) by incubating 1×10^6 cells in […] ^51Cr at 37° C. for 1-1.5 hours. The labelled cells were washed three times with phosphate buffered saline (PBS) containing 0.1% bovine serum albumin. The labelled cells were distributed in flat-bottomed 96 well microtiter plates at a concentration of 2×10^4 cells/well in triplicate. Effector (CIK) cells were added at the indicated ratios. Mabs were added prior to the addition of effector cells, and incubated for 15-30 minutes at room temperature. The final volume of the assay mixture in each well was 0.2 ml. After 4 hours at 37° C., the cells were collected by centrifugation and an aliquot of the supernatant was counted in a gamma counter (Micromedic Systems, Horsham, Pa.). The percentage of specific ^51Cr release was calculated according to the following equation: […]
Spontaneous release was obtained by incubating the labelled cells in complete medium alone and maximal release by treatment of the cells with 1% NP-40. […]

HUVEC = assay: ^51Cr release CIK cytotoxicity assay, endothelial cell targets pre-treated with BFA, protein or peptide; format: cell-based, human; design: block of CIK mediated lysis of HUVECs: dose or concentration left out as unconfirmed; conditions: for protection of EC from CIK lysis by pre-incubation with purified native protein: gelatin purified protein, 30 minutes, washed before CIK addition
Description: as §1
Spontaneous release was obtained by incubating the labelled cells in complete medium alone and maximal release by treatment of the cells with 1% NP-40.
For brefeldin A (BFA) treatment, freshly confluent HUVEC monolayers, nonadherent target cells or CIK cells at 0.5-2×10^6 cells per ml were incubated with medium supplemented with 0.5-10 μg of brefeldin A (B6hringer Mannheim GmbH, Mannheim, Germany) per ml medium and incubated for 2-6 hours in a humidified incubator with 5% carbon dioxide at 37° C. BFA was dissolved at 100 μg per ml in 70% ethanol and used fresh or stored up to 4 weeks at −20° C. Prior to cytotoxicity assay the cells were rinsed three times with PBS, and fresh medium not containing BFA was added for the remainder of the assay (FIG. 4).
Both HUVEC and OCI-Ly8 cells were incubated with BFA at concentrations of 0, 2.5, 5, 7.5 and 10 μM for 6 hours as described above, washed, labeled with ^51Cr and used in a cytotoxicity assay with d21 CIK cells at an E:T ratio of 20:1. Preincubation of EC targets with 2.5 μM BFA reduced CIK mediated cytotoxicity by 40%.
Subsequent to ^51Cr labeling but prior to addition of effector cells 10-200 μg FPLC purified Hsp47 (Example 7) protein or 10 nM to 10 μM HPLC purified peptide […] (SEQ ID NO:3) (Example 8), both in sterile PBS at pH 7.4 and diluted to the final concentration with RPMI, were added to targets per ml of medium and incubated for 30 minutes at 37° C. in a humidified atmosphere of 5% CO2. In assays using purified protein, targets were subjected to three subsequent washes with 10 volumes of Ca^2+, Mg^2+ and 5% FCS containing PBS prior to providing fresh standard culture medium to the target cells. In assays using purified peptide, the added peptide was present for the entire assay. The remainder of the assay was performed as detailed above, at 37° C. in a humidified atmosphere of 5% CO2.

46.5 KDa protein (Hsp47) = assay: Immunoprecipitation and autoradiography of ^35S labeled 46.5 KDa protein from EC; format: cell-based, human
Description: For metabolic ^35S methionine/cysteine labelling cells were cultured for 22 hours in cysteine and methionine free RPMI 1640 or Hams-F12K (Irvine Scientific, Santa Ana, Calif.) media with dialyzed FCS, otherwise as described above, prior to the addition of 100 μCi ml-1 of Translabel (PIERCE/Amersham, Amersham, UK) ^35S methionine/cysteine at the start of BFA, control treatment and incubated for the indicated times. Pulse-chase labelled proteins were analyzed by SDS-PAGE, western analysis or autoradiography and silver staining.
Immunoprecipitation was carried out by first preparing preformed immune complexes as follows: Purified specific mouse monoclonal or rabbit polyclonal antibody were incubated in stoichiometric ratio with purified secondary goat anti-mouse or anti-rabbit antibody at a concentration of 10 μg ml-1 of 150 mM NaCl, 10 mM Tris-HCl, 1% (w/v) NP40, pH 7.8 with gentle agitation for 3 hours at 4° C. In a separate reaction their respective isotype matched control antibodies were coupled to protein A sepharose beads (Pharmacia, Uppsala, Sweden). […] The specific immune precipitate was recovered by centrifugation at 13,000 rpm for 30 minutes at 4° C., washed twice with 10 mM Tris-HCl at pH 6.8 and analyzed by SDS-PAGE and subsequent silver stain, transfer to solid support and streptavidin-AP detection and autoradiography. […]

[1] = target: receptors for huHsp47 on CIK cells; assay: FACS of mature d21 CIK cells stained with 10 ug/ml eGFP-huHsp47, PE-CD56 co-staining
mature d21 CIK = assay: FACS analysis of mature d21 CIK with eGFP-tagged huHsp47 probe; format: binding, human; conditions: 10 μg eGFP-huHsp47 per ml, PE-CD56 co-staining
Description: For Fluorescence Activated Cell Sorting (FACS) 10^6 effector or target cells were washed twice with Ca^2+, Mg^2+ and 5% FCS containing PBS buffer, suspended in 50 μl of this buffer and placed at 0-4° C. in the dark. 1 μg of FITC-, PE-, Per-CP or TriColor labelled monoclonal antibody (Beckton Dickinson, San Jose, Calif.) per staining reaction of 10^6 cells was mixed with the cells and incubated for 15 to 30 minutes at 0-4° C. in the dark. Stained cells were subjected to three subsequent washes with 10 volumes of Ca^2+, Mg^2+ and 5% FCS containing PBS and taken up in 500 μl of this buffer for analysis or sort by FACScan/FACStar (Beckton Dickinson, San Jose, Calif.) with excitation at 488 nm and the appropriate channel filters for detection of emission.
The huHsp47δRDEL-enhanced green fluorescent protein (eGFP) fusion protein, expressed under the control of the CMV IE promoter, was isolated as described above and used as a FACS probe to search for huHsp47 cell surface binding proteins. […]
eGFP-tagged Hsp47 FACS probe was generated through additional genetic engineering (FIG. 8A) (SEQ ID NOS: 15-18). […] FACS analysis of mature d21 CIK with eGFP-tagged HuHsp47 as FACS probe for the FITC channel, with CE56-PE co-staining, is based on differences in the Hsp47 binding ability of the analyzed CIK. […]

## CC1CCCC=CC2CC(O)CC2C(O)C=CC(=O)O1 (centres unmarked) [BFA, 1,6,7,8,9,11a,12,13,14,14a-decahydro-1,13-dihydroxy-6-methyl-4H-cyclopent[f]oxacyclotridecin-4-one, reference compound]
huHsp47 RNA
  expression of housekeeping gene beta action: does not affect
  huHsp47 gene expression: does upregulate
OCI-Ly8 tumor cell
  effect on ability of CIK cells to lyse tumor targets: did not affect
HUVEC; BFA 0, 2.5, 5, 7.5 and 10 μM for 6 hours, E:T 20:1
  suppression of CIK mediated lysis of EC: suppress the CIK mediated lysis of EC in a dose dependent manner
HUVEC; after BFA removal
  persistence of resistant EC state after removal of the agent: at least six hours
HUVEC; preincubation in BFA (so in the source), 6 hours, E:T 20:1
  block of CIK mediated lysis of HUVECs: completely block
HUVEC; preincubation with 2.5 μM BFA for 6 hours, d21 CIK, E:T 20:1
  reduction of CIK mediated cytotoxicity against EC targets: 40%
46.5 KDa protein (Hsp47); non-protective dose of 30 μM BFA
  ^35S labeled 46.5 KDa protein in IP from EC: not detectable
46.5 KDa protein (Hsp47); protective dose of 10 μm BFA
  ^35S labeled 46.5 KDa protein in IP from EC: contained a ^35S labeled 46.5 KDa protein

## huHsp47δRDEL-enhanced green fluorescent protein (eGFP) fusion protein (from UniProt P50454 19-414)
[1]
  percent of cells positive for both eGFP-huHsp47 and PE-CD56 probes: 26%

B1: huHsp47: native human Hsp47, 46.5 KDa protein gelatin-affinity purified from BFA induced HUVEC (protein)
chain: AEVKKPVEAAAPGTAEKLSSKATTLAEPSTGLAFSLYQAMAKDQAVENILVSPVVVASSLGLVSLGGKATTASQAKAVLSAEQLRDEEVHAGLGELLRSLSNSTARNVTWKLGSRLYGPSSVSFADDFVASSKQHYNCEHSKINFPDKRSALQSINEWAAQTTDGKLPEVTKDVESTDGALLVNAMFFKPHWDEKFHHKMVDNRGFMVTRSYTVGVTMMHRTGLYNYYDDEKEKLQLVEMPLAHKLSSLIILMPHHVEPLERLEKLLTKEQLKIWMGKMQKKAVAISLPKGVVEVTHDLQKHLAGLGLTEAIDKNKADLSRMSGKKDLYLASVFHATAFELDTDGNPFDQDIYGREELRSPKLFYADHPFIFLVRDTQSGSLLFIGRLVRLKGDKMRDEL
HUVEC; 20 μm of gelatin-affinity purified huHsp47 per 300 μl
  protection of EC from CIK mediated lysis: completely protect
HUVEC
  protection of EC from CIK lysis by pre-incubation with purified native protein: protects EC
HUVEC; listed as p46.5
  protection of EC from CIK lysis by pre-incubation with purified native protein: protect previously CIK sensitive EC in a dose responsive fashion

B2: eGFP-huHsp47: huHsp47δRDEL-enhanced green fluorescent protein fusion protein used as FACS probe (protein)
chain: AEVKKPVEAAAPGTAEKLSSKATTLAEPSTGLAFSLYQAMAKDQAVENILVSPVVVASSLGLVSLGGKATTASQAKAVLSAEQLRDEEVHAGLGELLRSLSNSTARNVTWKLGSRLYGPSSVSFADDFVASSKQHYNCEHSKINFPDKRSALQSINEWAAQTTDGKLPEVTKDVESTDGALLVNAMFFKPHWDEKFHHKMVDNRGFMVTRSYTVGVTMMHRTGLYNYYDDEKEKLQLVEMPLAHKLSSLIILMPHHVEPLERLEKLLTKEQLKIWMGKMQKKAVAISLPKGVVEVTHDLQKHLAGLGLTEAIDKNKADLSRMSGKKDLYLASVFHATAFELDTDGNPFDQDIYGREELRSPKLFYADHPFIFLVRDTQSGSLLFIGRLVRLKGDKM
modifications: left off: large carriers
notes: huHsp47δRDEL-enhanced green fluorescent protein fusion protein used as FACS probe
Mature d21 CIK
  CIK cells stained by eGFP-tagged Hsp47 probe: 26%
